Measured values: patent US5972950A, “1,2-diarylmethylene derivatives, their methods of preparation and their uses in therapeutics” (Laboratories UPSA, priority 1996, dated 1999)

Tests used:
[1] = tested on: carrageenan-induced paw oedema; experiment: oedema with carrageenan (anti-inflammatory activity) in rats; type: in vivo; conditions: rat, oral, oedema volume 3 hours after carrageenan, n=6
Protocol: Anti-Inflammatory Activity
The anti-inflammatory activity is evaluated in rats by the test of oedema with carrageenan. The product is administered orally at a rate of 2.5 ml/100 g (n=6 animals per dose) 2 hours 30 minutes after a water overload taken orally (2.5 ml/ 100 g). One hour after administration of the product, the oedema is induced by plantar subcutaneous injection of aqueous 2% carrageenan solution.

[2] = tested on: pain response in kaolin arthritis; experiment: arthritis with kaolin (analgesic activity) in rats; type: in vivo; conditions: rat, oral, pain response 5 hours 30 minutes after administration, n=10
Protocol: The analgesic activity is evaluated in rats by the test of arthritis with kaolin. Thirty minutes after intra-articular administration of an aqueous 10% suspension of kaolin, the product is administered orally at a rate of 1 ml/100 g (n=10 animals per dose).

COX-2 = experiment: inhibition of COX-2 enzymatic activity (PGE2 by EIA); type: biochemical; conditions: purified enzyme from ewe placenta, mean ± standard deviation, 4 determinations
Protocol: (§1) Inhibition Of The COX-1 and COX-2 Enzymatic Activities The molecule studied is preincubated for 10 minutes at 25° C. with 2 U of COX-1 (purified enzyme from ram seminal vesicles) or 1 U of COX-2 (purified enzyme from ewe placenta). Arachidonic acid (6 μM for COX-1, 4, μM for COX-2) is added to the reaction medium and incubation is carried out for 5 minutes at 25° C. When incubation has ended, the enzymatic reaction is stopped by the addition of 1 N HCl and the PGE2 produced is determined by EIA. The results are expressed as the percentage inhibition of the COX-1 and COX-2 enzymatic activities and correspond to mean (±) standard deviations from the average of 4 determinations.

COX-1 = experiment: inhibition of COX-1 enzymatic activity (PGE2 by EIA); type: biochemical; conditions: purified enzyme from ram seminal vesicles, mean ± standard deviation, 4 determinations
Protocol: as §1

Row | SMILES | Anti-inflammatory activity % inhibition ([1]; 30 mg/kg) [%] | Analgesic activity % inhibition ([2]; 30 mg/kg) [%] | % inhibition of COX-2 activity (COX-2; 10^-5 M) [%] | % inhibition of COX-2 activity (COX-2; 10^-7 M) [%] | % inhibition of COX-1 activity (COX-1; 10^-5 M) [%] | % inhibition of COX-1 activity (COX-1; 10^-7 M) [%] | Anti-inflammatory activity % inhibition ([1]; 100 mg/kg) [%] | Analgesic activity % inhibition ([2]; 100 mg/kg) [%]
1 | CCOC(=O)/C(CCO)=C(/c1ccc(S(C)(=O)=O)cc1)c1cc(Cl)cc(Cl)c1 [Example 14, Ethyl (Z)-3-(3,5-dichlorophenyl)-3-(4-methanesulphonylphenyl)-2-(2-hydroxyethyl)prop-2-enoate] | 28.9 ± 4.5 | 45.8 ± 10.9 | 80 ± 2 | 16 ± 9 | 0 ± 0 | 0 ± 0 |  | 
2 | CS(=O)(=O)c1ccc(/C(=C(\CCO)C(=O)[O-])c2ccc(Cl)c(Cl)c2)cc1.[Na+] [Example 27, Sodium (Z)-3-(3,4-dichlorophenyl)-3-(4-methanesulphonylphenyl)-2-(2-hydroxyethyl)prop-2-enoate] |  |  |  |  |  |  | 32.4 ± 8.2 | 63.6 ± 13.2
